The values that follow come from publication PMC5149032, “Secondary Metabolites and Biological Activities of Talaromyces sp. LGT-2, an Endophytic Fungus from Tripterygium Wilfordii” (Iranian Journal of Pharmaceutical Research : IJPR, 2016).

One may read the IC50 as the midpoint of a concentration-inhibition curve. Low values mean greater potency in that assay, high ones weaker potency in that assay.

The target of this assay is monoamine oxidase (MAO), isoform not stated. Put plainly: MAO inhibition assay (procedure cited to earlier paper; enzyme source not given). It counts as biochemical.

`O=CN/C=C\c1ccc(O)cc1` [compound 11, (Z)-N-(4-hydroxystyryl)formamide] displayed a half-maximal inhibitory concentration (IC50) of 61 µM. This lies in the double-digit micromolar range.
